Calls of active or inactive are those of the source. The rule behind the calls is not given here.
System: CCRIS mutagenicity, Ames/micronucleus/aberration tests
Assay: CCRIS mutagenicity studies
[1] = Test System: AMES SALMONELLA TYPHIMURIUM, Strain/Indicator: TA98, Metabolic Activation: NONE, Method: PREINCUBATION
[2] = Test System: AMES SALMONELLA TYPHIMURIUM, Strain/Indicator: TA100, Metabolic Activation: NONE, Method: PREINCUBATION
[3] = Test System: AMES SALMONELLA TYPHIMURIUM, Strain/Indicator: TA1535, Metabolic Activation: NONE, Method: PREINCUBATION
[4] = Test System: AMES SALMONELLA TYPHIMURIUM, Strain/Indicator: TA98, Metabolic Activation: NONE, Method: STANDARD PLATE
[5] = Test System: AMES SALMONELLA TYPHIMURIUM, Strain/Indicator: TA98, Metabolic Activation: RAT, LIVER, S-9, AROCLOR 1254, Method: STANDARD PLATE
[6] = Test System: AMES SALMONELLA TYPHIMURIUM, Strain/Indicator: TA100, Metabolic Activation: RAT, LIVER, S-9, AROCLOR 1254, Method: STANDARD PLATE
[7] = Test System: AMES SALMONELLA TYPHIMURIUM, Strain/Indicator: TA1535, Metabolic Activation: NONE, Method: STANDARD PLATE
[8] = Test System: AMES SALMONELLA TYPHIMURIUM, Strain/Indicator: TA1535, Metabolic Activation: RAT, LIVER, S-9, AROCLOR 1254, Method: STANDARD PLATE
[9] = Test System: AMES SALMONELLA TYPHIMURIUM, Strain/Indicator: TA1537, Metabolic Activation: NONE, Method: STANDARD PLATE
[10] = Test System: AMES SALMONELLA TYPHIMURIUM, Strain/Indicator: TA1537, Metabolic Activation: RAT, LIVER, S-9, AROCLOR 1254, Method: STANDARD PLATE
[11] = Test System: AMES SALMONELLA TYPHIMURIUM, Strain/Indicator: TA1538, Metabolic Activation: NONE, Method: STANDARD PLATE
[12] = Test System: AMES SALMONELLA TYPHIMURIUM, Strain/Indicator: TA1538, Metabolic Activation: RAT, LIVER, S-9, AROCLOR 1254, Method: STANDARD PLATE

With `C=CC1CC=CCC1` (stereo unspecified) the mutagenic call (Test System: AMES SALMONELLA TYPHIMURIUM, Strain/Indicator: TA98, Metabolic Activation: HAMSTER, LIVER, S-9, AROCLOR 1254 (10%), Method: PREINCUBATION) was “inactive; negative”, the mutagenic call (Test System: AMES SALMONELLA TYPHIMURIUM, Strain/Indicator: TA98, Metabolic Activation: HAMSTER, LIVER, S-9, AROCLOR 1254, Method: PREINCUBATION) was “inactive; negative” and the mutagenic call [1] was “inactive; negative”. For the same compound, the mutagenic call (Test System: AMES SALMONELLA TYPHIMURIUM, Strain/Indicator: TA98, Metabolic Activation: RAT, LIVER, S-9, AROCLOR 1254 (10%), Method: PREINCUBATION) was “inactive; negative”, the mutagenic call (Test System: AMES SALMONELLA TYPHIMURIUM, Strain/Indicator: TA98, Metabolic Activation: RAT, LIVER, S-9, AROCLOR 1254, Method: PREINCUBATION) was “inactive; negative” and the mutagenic call (Test System: AMES SALMONELLA TYPHIMURIUM, Strain/Indicator: TA100, Metabolic Activation: HAMSTER, LIVER, S-9, AROCLOR 1254 (10%), Method: PREINCUBATION) was “inactive; negative”. For the same compound, the mutagenic call (Test System: AMES SALMONELLA TYPHIMURIUM, Strain/Indicator: TA100, Metabolic Activation: HAMSTER, LIVER, S-9, AROCLOR 1254, Method: PREINCUBATION) was “inactive; negative”, the mutagenic call [2] was “inactive; negative” and the mutagenic call (Test System: AMES SALMONELLA TYPHIMURIUM, Strain/Indicator: TA100, Metabolic Activation: RAT, LIVER, S-9, AROCLOR 1254 (10%), Method: PREINCUBATION) was “inactive; negative”. The mutagenic call (Test System: AMES SALMONELLA TYPHIMURIUM, Strain/Indicator: TA100, Metabolic Activation: RAT, LIVER, S-9, AROCLOR 1254, Method: PREINCUBATION) was “inactive; negative”, the mutagenic call (Test System: AMES SALMONELLA TYPHIMURIUM, Strain/Indicator: TA1535, Metabolic Activation: HAMSTER, LIVER, S-9, AROCLOR 1254 (10%), Method: PREINCUBATION) was “inactive; negative” and the mutagenic call (Test System: AMES SALMONELLA TYPHIMURIUM, Strain/Indicator: TA1535, Metabolic Activation: HAMSTER, LIVER, S-9, AROCLOR 1254, Method: PREINCUBATION) was “inactive; negative”. The mutagenic call [3] was “inactive; negative”, the mutagenic call (Test System: AMES SALMONELLA TYPHIMURIUM, Strain/Indicator: TA1535, Metabolic Activation: RAT, LIVER, S-9, AROCLOR 1254 (10%), Method: PREINCUBATION) was “inactive; negative” and the mutagenic call (Test System: AMES SALMONELLA TYPHIMURIUM, Strain/Indicator: TA1535, Metabolic Activation: RAT, LIVER, S-9, AROCLOR 1254, Method: PREINCUBATION) was “inactive; negative”. For the same compound, the mutagenic call (Test System: AMES SALMONELLA TYPHIMURIUM, Strain/Indicator: TA1537, Metabolic Activation: HAMSTER, LIVER, S-9, AROCLOR 1254 (10%), Method: PREINCUBATION) was “inactive; negative”, the mutagenic call (Test System: AMES SALMONELLA TYPHIMURIUM, Strain/Indicator: TA1537, Metabolic Activation: HAMSTER, LIVER, S-9, AROCLOR 1254, Method: PREINCUBATION) was “inactive; negative” and the mutagenic call (Test System: AMES SALMONELLA TYPHIMURIUM, Strain/Indicator: TA1537, Metabolic Activation: NONE, Method: PREINCUBATION) was “inactive; negative”. The mutagenic call (Test System: AMES SALMONELLA TYPHIMURIUM, Strain/Indicator: TA1537, Metabolic Activation: RAT, LIVER, S-9, AROCLOR 1254 (10%), Method: PREINCUBATION) was “inactive; negative” and the mutagenic call (Test System: AMES SALMONELLA TYPHIMURIUM, Strain/Indicator: TA1537, Metabolic Activation: RAT, LIVER, S-9, AROCLOR 1254, Method: PREINCUBATION) was “inactive; negative”.
`O=C1c2cc(S(=O)(=O)O)ccc2C(=O)c2c1cccc2[N+](=O)[O-]` was tested, and the mutagenic call [4] was “active; positive”, the mutagenic call [5] was “active; positive” and the mutagenic call [6] was “inactive; negative”. The mutagenic call [7] was “inactive; negative”, the mutagenic call [8] was “inactive; negative” and the mutagenic call [9] was “active; positive”. The mutagenic call [10] was “active; positive”, the mutagenic call [11] was “active; positive” and the mutagenic call [12] was “active; positive”.
With `CCCCOCCOCCO` the mutagenic call (Test System: AMES SALMONELLA TYPHIMURIUM, Strain/Indicator: TA97, Metabolic Activation: HAMSTER, LIVER, S-9, AROCLOR 1254 (10 OR 30%), Method: PREINCUBATION) was “inactive; negative”, the mutagenic call (Test System: AMES SALMONELLA TYPHIMURIUM, Strain/Indicator: TA97, Metabolic Activation: NONE, Method: PREINCUBATION) was “inactive; negative” and the mutagenic call (Test System: AMES SALMONELLA TYPHIMURIUM, Strain/Indicator: TA97, Metabolic Activation: RAT, LIVER, S-9, AROCLOR 1254 (10 OR 30%), Method: PREINCUBATION) was “inactive; negative”. For the same compound, the mutagenic call (Test System: AMES SALMONELLA TYPHIMURIUM, Strain/Indicator: TA98, Metabolic Activation: HAMSTER, LIVER, S-9, AROCLOR 1254 (10 OR 30%), Method: PREINCUBATION) was “inactive; negative”, the mutagenic call [1] was “inactive; negative” and the mutagenic call [4] was “inactive; negative”. The mutagenic call (Test System: AMES SALMONELLA TYPHIMURIUM, Strain/Indicator: TA98, Metabolic Activation: RAT, LIVER, S-9, AROCLOR 1254 (10 OR 30%), Method: PREINCUBATION) was “inactive; negative”, the mutagenic call [5] was “inactive; negative” and the mutagenic call (Test System: AMES SALMONELLA TYPHIMURIUM, Strain/Indicator: TA100, Metabolic Activation: HAMSTER, LIVER, S-9, AROCLOR 1254 (10 OR 30%), Method: PREINCUBATION) was “inactive; negative”. For the same compound, the mutagenic call [2] was “inactive; negative”, the mutagenic call (Test System: AMES SALMONELLA TYPHIMURIUM, Strain/Indicator: TA100, Metabolic Activation: NONE, Method: STANDARD PLATE) was “inactive; negative” and the mutagenic call (Test System: AMES SALMONELLA TYPHIMURIUM, Strain/Indicator: TA100, Metabolic Activation: RAT, LIVER, S-9, AROCLOR 1254 (10 OR 30%), Method: PREINCUBATION) was “inactive; negative”. The mutagenic call [6] was “inactive; negative”, the mutagenic call (Test System: AMES SALMONELLA TYPHIMURIUM, Strain/Indicator: TA1535, Metabolic Activation: HAMSTER, LIVER, S-9, AROCLOR 1254 (10 OR 30%), Method: PREINCUBATION) was “inactive; negative” and the mutagenic call [3] was “inactive; negative”. For the same compound, the mutagenic call [7] was “inactive; negative”, the mutagenic call (Test System: AMES SALMONELLA TYPHIMURIUM, Strain/Indicator: TA1535, Metabolic Activation: RAT, LIVER, S-9, AROCLOR 1254 (10 OR 30%), Method: PREINCUBATION) was “inactive; negative” and the mutagenic call [8] was “inactive; negative”. For the same compound, the mutagenic call [9] was “inactive; negative”, the mutagenic call [10] was “inactive; negative” and the mutagenic call [11] was “inactive; negative”. The mutagenic call [12] was “inactive; negative”, the mutagenic call (Test System: CHINESE HAMSTER OVARY, Strain/Indicator: CHO-K1-BH4 (HGPRT)/6-THIOGUANINE, Metabolic Activation: NONE) was “inactive; negative” and the mutagenic call (Test System: CHINESE HAMSTER OVARY, Strain/Indicator: CHO-K1-BH4 (HGPRT)/THIOGUANINE, Metabolic Activation: RAT, LIVER, S-9, AROCLOR 1254) was “inactive; negative”. For the same compound, the mutagenic call (Test System: MOUSE LYMPHOMA, Strain/Indicator: L5178Y (TK+/TK-), Metabolic Activation: NONE, Method: SUSPENSION/PLATE) was “active; positive”, the mutagenic call (Test System: MOUSE LYMPHOMA, Strain/Indicator: L5178Y (TK+/TK-), Metabolic Activation: RAT, LIVER, S-9, AROCLOR 1254, Method: SUSPENSION/PLATE) was “inactive; negative” and the mutagenic call (Test System: UDS RAT HEPATOCYTES, Strain/Indicator: THY INCORP, Metabolic Activation: NONE, Method: AUTORADIOGRAPHY) was “inactive; negative”.

Source: PubChem BioAssay AID1259407 (Chemical Carcinogenesis Research Information System (CCRIS), 2018)
